Earlier results, collected in patent publication US20090005431A1, “SUBSTITUTED PYRROLIDINES” (AUSPEX PHARMACEUTICALS, INC., priority 2007, published 2009).

Key:
Conditions in all cases: human recombinant muscarinic receptor subtypes; cited from earlier work
[1] = system: M3 receptor compared to M5
[2] = system: M3 receptor compared to M2
[3] = system: M3 receptor compared to M4
[4] = system: M3 receptor compared to M1

In the case of `NC(=O)C(c1ccccc1)(c1ccccc1)[C@@H]1CCN(CCc2ccc3c(c2)CCO3)C1` (stereo in doubt) [darifenacin, 2-{1-[2-(2,3-dihydro-benzofuran-5-yl)-ethyl]-pyrrolidin-3-yl}-2,2-diphenyl-acetamide], the “greater affinity for M3 compared to M5” value [1] is given as 12 fold, the “greater affinity for M3 compared to M2” value [2] is given as 59 fold and the “greater affinity for M3 compared to M4” value [3] is given as 59 fold. For the same compound, the “greater affinity for M3 compared to M1” value [4] was 9 fold.
